Reference: a compilation of properties of binary mixtures (doi:10.1021/acs.jced.0c00495)

Assay: xn = mol fraction of the nth substance listed
Details: 101.3 kPa

CCCCCCCCn1cc[n+](C)c1.F[B-](F)(F)F + Nc1ccccc1
speed of sound [m/s]
Details | x1 = 0.0996 | x1 = 0.1904 | x1 = 0.2853 | x1 = 0.3789 | x1 = 0.4955 | x1 = 0.5783 | x1 = 0.6966 | x1 = 0.7938 | x1 = 0.8958
293.15 K | 1640 | 1619 | 1595 | 1574 | 1553 | 1540 | 1526 | 1516 | –
298.15 K | – | – | 1580 | 1560 | 1539 | 1526 | 1512 | – | 1494
303.15 K | – | – | 1564 | 1545 | 1525 | 1513 | 1499 | 1488 | –
308.15 K | 1589 | – | 1549 | 1530 | 1511 | – | 1485 | 1476 | 1467
313.15 K | – | 1554 | 1534 | – | 1496 | 1485 | 1472 | 1463 | 1454
318.15 K | 1554 | 1538 | 1518 | – | 1483 | 1472 | 1459 | 1450 | 1441
323.15 K | – | – | 1502 | 1486 | 1469 | 1458 | 1446 | – | 1429

CCCCCC[n+]1ccn(C)c1.F[B-](F)(F)F + Nc1ccccc1
speed of sound [m/s]
Details | x1 = 0.0989 | x1 = 0.1792 | x1 = 0.2896 | x1 = 0.3924 | x1 = 0.5062 | x1 = 0.6042 | x1 = 0.6986 | x1 = 0.7974 | x1 = 0.8962
293.15 K | 1653 | – | 1618 | 1598 | 1579 | 1565 | – | – | 1539
298.15 K | 1636 | 1623 | 1603 | 1583 | – | – | 1541 | 1532 | 1526
303.15 K | – | 1606 | 1586 | 1568 | 1550 | 1537 | – | 1520 | 1513
308.15 K | 1601 | 1589 | 1571 | 1553 | 1536 | 1524 | 1515 | 1507 | 1501
313.15 K | – | 1572 | 1555 | 1539 | 1522 | 1510 | 1502 | 1494 | 1489
318.15 K | 1565 | 1556 | 1540 | 1525 | 1509 | – | – | 1482 | 1476
323.15 K | 1547 | – | 1525 | – | 1496 | 1485 | 1477 | 1470 | 1464

Nc1ccccc1 + CCCCCCCCn1cc[n+](C)c1.F[B-](F)(F)F
x2 = 0
Details | speed of sound [m/s]
293.15 K | 1657
298.15 K | 1638
303.15 K | 1618
308.15 K | 1599
318.15 K | 1561
323.15 K | 1542

Nc1ccccc1 + CCCC[n+]1ccn(C)c1.F[B-](F)(F)F
speed of sound [m/s]
Details | x2 = 0 | x2 = 0.0925 | x2 = 0.2022 | x2 = 0.2995 | x2 = 0.4002 | x2 = 0.4982 | x2 = 0.5953 | x2 = 0.6935 | x2 = 0.7904 | x2 = 0.9191
293.15 K | – | 1656 | – | 1645 | 1634 | – | 1613 | 1603 | – | 1583
298.15 K | 1638 | – | 1636 | 1630 | 1619 | – | 1600 | 1590 | 1581 | 1571
303.15 K | – | 1623 | 1619 | 1614 | 1604 | 1595 | 1587 | – | – | –
308.15 K | 1599 | 1606 | 1603 | – | 1590 | – | 1573 | 1565 | 1557 | 1548
313.15 K | – | 1588 | 1587 | 1582 | – | 1568 | 1560 | 1553 | 1546 | 1537
318.15 K | 1561 | 1570 | 1571 | 1566 | 1561 | – | 1548 | – | 1534 | 1526
323.15 K | – | 1553 | 1555 | – | – | 1541 | – | 1529 | 1523 | 1516

Nc1ccccc1 + CCCCCC[n+]1ccn(C)c1.F[B-](F)(F)F
x2 = 0
Details | speed of sound [m/s]
293.15 K | 1657
298.15 K | 1638
303.15 K | 1618
308.15 K | 1599
